Test results: PubChem BioAssay AID248 (DTP/NCI, 2004)
Toxic doses and inconclusive results are not listed. No stated cut-off is given here; in the data, active means T/C of 150% or more; inactive means T/C below 125%.

Test system: L1210 leukemia ip in BDF1 mice, survival T/C
Assay: NCI In Vivo Anticancer Drug Screen. Data for tumor model L1210 Leukemia (intraperitoneal) in B6D2F1 (BDF1) mice
Settings: endpoint: mean survival time, higher = longer survival
Outline: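 Mice bearing the transplanted tumor received compound or vehicle. Survival of the treated group was divided by that of the vehicle-treated control group to give the ratio.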

[1] = dose: 100.0 mg/kg/injection, schedule: Q01DX001 (ip), vehicle: saline
[2] = dose: 200.0 mg/kg/injection, schedule: Q01DX001 (ip), vehicle: saline
[3] = dose: 100.0 mg/kg/injection, schedule: Q01DX009 (ip), vehicle: Klucel (hydroxypropylcellulose) (HPC)
[4] = dose: 200.0 mg/kg/injection, schedule: Q01DX009 (ip), vehicle: Klucel (hydroxypropylcellulose) (HPC)
[5] = dose: 100.0 mg/kg/injection, schedule: Q01DX001 (ip), vehicle: carboxymethylcellulose (CMC)
[6] = dose: 200.0 mg/kg/injection, schedule: Q01DX001 (ip), vehicle: carboxymethylcellulose (CMC)
[7] = dose: 400.0 mg/kg/injection, schedule: Q01DX001 (ip), vehicle: carboxymethylcellulose (CMC)
[8] = dose: 100.0 mg/kg/injection, schedule: Q04DX003 (ip), vehicle: saline with Tween-80
[9] = dose: 200.0 mg/kg/injection, schedule: Q04DX003 (ip), vehicle: saline with Tween-80
[10] = dose: 400.0 mg/kg/injection, schedule: Q01DX009 (ip), vehicle: Klucel (hydroxypropylcellulose) (HPC)
[11] = dose: 400.0 mg/kg/injection, schedule: Q04DX003 (ip), vehicle: saline with Tween-80

Measured: T/C

CCCCN(C#N)CC(C)(C)[N+](=O)[O-]
inactive: dose: 111.0 mg/kg/injection, schedule: Q01DX Z (ip), vehicle: methylcellulose (MC) 103 % of control | dose: 166.0 mg/kg/injection, schedule: Q01DX Z (ip), vehicle: methylcellulose (MC) 97 % of control | dose: 250.0 mg/kg/injection, schedule: Q01DX Z (ip), vehicle: methylcellulose (MC) 108 % of control

Cc1cc2oc(=O)c3c(c2c(O)c1CN1CCN(C)CC1)CCCC3
inactive: [1] 95 % of control | [2] 92 % of control

CCCNC(=O)Oc1ccccc1C(N)=O
inactive: [3] 105 % of control | [4] 102 % of control

Clc1ccc(/C=C2\c3ccccc3-c3nc4ccccc4nc32)cc1
inactive: dose: 75.0 mg/kg/injection, schedule: Q04DX003 (ip), vehicle: saline 91 % of control | dose: 150.0 mg/kg/injection, schedule: Q04DX003 (ip), vehicle: saline 88 % of control

COc1ccc(-c2ccc([N+](=O)[O-])cc2[N+](=O)[O-])cc1
inactive: [5] 105 % of control | [6] 110 % of control | [7] 105 % of control

O=[N+]([O-])c1cccc(/C=C/c2ccc(S(=O)(=O)F)cc2)c1
inactive: [8] 95 % of control | [9] 90 % of control

CCCCNCCC(=O)c1ccc(Cl)cc1
inactive: dose: 6.25 mg/kg/injection, schedule: Q01DX009 (ip), vehicle: saline with Tween-80 98 % of control | dose: 12.5 mg/kg/injection, schedule: Q01DX009 (ip), vehicle: saline with Tween-80 100 % of control | dose: 25.0 mg/kg/injection, schedule: Q01DX009 (ip), vehicle: saline with Tween-80 94 % of control

Clc1nc2nc[nH]c2nc1Cl
inactive: dose: 25.0 mg/kg/injection, schedule: Q04DX003 (ip), vehicle: saline with Tween-80 98 % of control | dose: 50.0 mg/kg/injection, schedule: Q04DX003 (ip), vehicle: saline with Tween-80 104 % of control | dose: 100.0 mg/kg/injection, schedule: Q04DX003 (ip), vehicle: Klucel (hydroxypropylcellulose) (HPC) 92 % of control | [8] 86 % of control

O=C(N/N=C/c1ccc(Cl)c([N+](=O)[O-])c1)C(O)(c1ccccc1)c1ccccc1
inactive: [5] 103 % of control | [6] 95 % of control | [7] 101 % of control

Cc1c(C)c(C(=O)O)c(C)c(C)c1C(=O)O
inactive: dose: 100.0 mg/kg/injection, schedule: Q01DX009 (ip), vehicle: saline with Tween-80 96 % of control | dose: 200.0 mg/kg/injection, schedule: Q01DX009 (ip), vehicle: saline with Tween-80 97 % of control | dose: 400.0 mg/kg/injection, schedule: Q01DX009 (ip), vehicle: saline with Tween-80 102 % of control

C=CCc1ccc(OC(=O)Nc2ccccc2Cl)c(OC)c1
inactive: dose: 100.0 mg/kg/injection, schedule: Q04DX002 (ip), vehicle: Klucel (hydroxypropylcellulose) (HPC) 96 % of control | dose: 200.0 mg/kg/injection, schedule: Q04DX002 (ip), vehicle: Klucel (hydroxypropylcellulose) (HPC) 96 % of control | dose: 400.0 mg/kg/injection, schedule: Q04DX002 (ip), vehicle: Klucel (hydroxypropylcellulose) (HPC) 92 % of control

Cc1cc(=O)[nH]c2c(Cl)ccc(C(F)(F)F)c12
inactive: dose: 100.0 mg/kg/injection, schedule: Q01DX001 (ip), vehicle: other 94 % of control | dose: 200.0 mg/kg/injection, schedule: Q01DX001 (ip), vehicle: other 94 % of control | dose: 400.0 mg/kg/injection, schedule: Q01DX001 (ip), vehicle: other 114 % of control

CCN(CC)c1ccc(/C=C/C(=O)c2ccc(N(CC)CC)cc2)cc1
inactive: [3] 94 % of control | [4] 97 % of control | [10] 97 % of control

COc1ccccc1CNC1CCCCC1
inactive: dose: 75.0 mg/kg/injection, schedule: Q01DX001 (ip), vehicle: saline 92 % of control

CCCCCCCCCCCC[N+](C)(C)C (tested in a mixture with another compound)
inactive: dose: 1.25 mg/kg/injection, schedule: Q01DX015 (ip), vehicle: saline 101 % of control | dose: 2.5 mg/kg/injection, schedule: Q01DX015 (ip), vehicle: saline 95 % of control | dose: 3.12 mg/kg/injection, schedule: Q01DX009 (ip), vehicle: saline 92 % of control | dose: 3.12 mg/kg/injection, schedule: Q04DX003 (ip), vehicle: saline 98 % of control | dose: 5.0 mg/kg/injection, schedule: Q01DX015 (ip), vehicle: saline 101 % of control | dose: 5.0 mg/kg/injection, schedule: Q04DX003 (ip), vehicle: saline 107 % of control | dose: 6.25 mg/kg/injection, schedule: Q01DX009 (ip), vehicle: saline 94 % of control | dose: 6.25 mg/kg/injection, schedule: Q04DX003 (ip), vehicle: saline 98 % of control | dose: 10.0 mg/kg/injection, schedule: Q01DX015 (ip), vehicle: saline 98 % of control | dose: 10.0 mg/kg/injection, schedule: Q04DX003 (ip), vehicle: saline 112 % of control | dose: 12.5 mg/kg/injection, schedule: Q01DX009 (ip), vehicle: saline 105 % of control | dose: 12.5 mg/kg/injection, schedule: Q04DX003 (ip), vehicle: saline 95 % of control | dose: 18.0 mg/kg/injection, schedule: Q01DX009 (ip), vehicle: saline 90 % of control | dose: 20.0 mg/kg/injection, schedule: Q01DX015 (ip), vehicle: saline 98 % of control | dose: 20.0 mg/kg/injection, schedule: Q04DX003 (ip), vehicle: saline 93 % of control | dose: 37.5 mg/kg/injection, schedule: Q01DX001 (ip), vehicle: saline 101 % of control | dose: 40.0 mg/kg/injection, schedule: Q01DX015 (ip), vehicle: saline 100 % of control | dose: 40.0 mg/kg/injection, schedule: Q04DX003 (ip), vehicle: Klucel (hydroxypropylcellulose) (HPC) 90 % of control

CCOC(=O)NC(=S)Nc1ccccc1NC(=S)NC(=O)OCC
inactive: dose: 100.0 mg/kg/injection, schedule: Q04DX003 (ip), vehicle: gum acacia 97 % of control | dose: 200.0 mg/kg/injection, schedule: Q04DX003 (ip), vehicle: gum acacia 97 % of control | dose: 400.0 mg/kg/injection, schedule: Q04DX003 (ip), vehicle: gum acacia 94 % of control

COC(=O)c1ccc(OC(=O)Nc2ccc(C)cc2)cc1
inactive: [3] 101 % of control | [4] 100 % of control | [10] 101 % of control

CCCCCCCCCCCCCSc1ccc(Br)cc1
inactive: [8] 96 % of control | [9] 96 % of control | [11] 96 % of control

O=C(O)C1=C(C(=O)O)C2CCCC3C4CCCCC4N(N1)C23 (stereo unspecified)
inactive: dose: 75.0 mg/kg/injection, schedule: Q01DX001 (ip), vehicle: acetone 117 % of control | dose: 150.0 mg/kg/injection, schedule: Q01DX001 (ip), vehicle: acetone 104 % of control | dose: 300.0 mg/kg/injection, schedule: Q01DX001 (ip), vehicle: acetone 118 % of control

COc1cc2c(cc1OC)C(CC(C)C)=[N+](C)CC2
inactive: dose: 25.0 mg/kg/injection, schedule: Q04DX002 (ip), vehicle: saline with Tween-80 93 % of control | dose: 50.0 mg/kg/injection, schedule: Q04DX002 (ip), vehicle: saline with Tween-80 93 % of control | dose: 100.0 mg/kg/injection, schedule: Q04DX002 (ip), vehicle: saline with Tween-80 93 % of control

C[n+]1cccc2c(C(=O)O)cccc21
inactive: [1] 97 % of control | [2] 96 % of control

CCCCCCCCCC[As](=O)(O)CCCCCCCCCC
inactive: dose: 50.0 mg/kg/injection, schedule: Q01DX001 (ip), vehicle: saline 107 % of control | [1] 103 % of control | [2] 103 % of control | dose: 400.0 mg/kg/injection, schedule: Q01DX001 (ip), vehicle: saline 115 % of control

O=C1c2ccccc2CCC12OC2c1ccc(Cl)cc1 (stereo unspecified)
inactive: dose: 50.0 mg/kg/injection, schedule: Q01DX009 (ip), vehicle: saline 102 % of control | dose: 100.0 mg/kg/injection, schedule: Q01DX009 (ip), vehicle: saline 107 % of control | [8] 108 % of control | dose: 200.0 mg/kg/injection, schedule: Q01DX009 (ip), vehicle: saline 98 % of control | [9] 95 % of control | dose: 400.0 mg/kg/injection, schedule: Q01DX009 (ip), vehicle: saline 100 % of control | [11] 103 % of control

CC(=O)Cc1ccc(C(=O)C(C)Cc2ccc(C(C)=O)cc2)cc1 (stereo unspecified)
inactive: [8] 90 % of control | [9] 110 % of control | [11] 92 % of control
